Assay [1] relates to carboxylase in human saliva. The experiment in a line: Inhibition of carboxylase in human saliva (p-nitrophenylvalerate hydrolysis, 400 nm). It counts as biochemical. As to conditions: for inhibition of carboxylase (in words): human saliva. The protocol: The carboxylase activity in saliva samples is monitored by the hydrolysis of p-nitrophenylvalerate to the readily detectable p-nitrophenol. The concentration of p-nitrophenol in the sample is measured spectrophotometrically at 400 nm, and the value is calculated from p-nitrophenol standard curve (Table 3 and FIG. 4). Values for carboxylase activity in saliva (nmol. min-1 per mL of saliva) are presented in Tables 4-8 and showing in FIG. 5 and FIG. 6. The average specific activity for carboxylase in human saliva is about 47 nmol min^−1 per mL.
The assay for carboxylase consists of 4 mL of tris-HCl buffer (pH 7.0) that contain 25 μL of p-nitrophenylvalerate (13.8 mg/mL of alcohol) and 50-500 μL of human saliva. […] In the inhibition study, the agent is incubated with saliva for about 15-20 minutes before the addition of p-nitrophenylvalerate. Organophosphate concentration is verified by gas chromatography using standard methods as described by Knaak et al. (1993).

Assay [2] deals with acetylcholinesterase in human saliva. The experiment in a line: Inhibition of acetylcholinesterase in human saliva (acetylthiocholine iodide/DTNB, 405 nm). As to conditions: for inhibition of acetylcholinesterase (in words): human saliva. It counts as biochemical. Here is the method: The hydrolysis of acetylthiocholine iodide (an analog of acetylcholine iodides) by the saliva enzyme or enzymes is measured by generating the yellow 5-thio-2-nitrobenzoate with an absorbance maximum at 405 nm. The rate of change of absorbance is directly proportional to acetylcholinesterase activity. In this procedure, 0.1-1 mL of saliva (3.261 mg protein/mL) is incubated with 100 μL of acetylthiocholine iodide (0.018M) (lot #10H0653 Sigma) for 30-180 minute at 37° C. in 4.0 mL phosphate buffer (pH 7.8). After the incubation, a 0.2 mL of DTNB is added and the sample is read at 405 nm. The enzyme activity is calculated from glutathione standard curve (Table 9 and FIG. 9). Values for AChE activity in human saliva and enzyme kinetics are presented in Tables 10-14 and show in FIG. 10 through FIG. 14.
The AChE specific activity in saliva is about 4 nmol minute^−1 per mL of saliva. […] The percent of enzyme inhibition by organophosphate is calculated and presented in Tables 13-14 and showing in FIG. 15.

The mark [3] stands for this setting: 60 μg/mL, Test #2, 50 μL saliva, 20 min preincubation.
Setting [4] is: 500 μg/ml, test #1, 200 μL saliva, 15 min preincubation, 37° C.
The mark [5] stands for this setting: 240 μg of isofenphos in 4.0 mL, Test #2, 200 μL saliva, 37° C.
[6] abbreviates: 22 μg/mL, Test #2, 50 μL saliva, 20 min preincubation.
The mark [7] stands for this setting: 29 μg/ml in Tris/Citrate, test #1, 200 μL saliva, 15 min preincubation, 37° C.

Values joined by “and” are separate entries in the source; they are usually repeats but may differ in a detail not shown here. Identical values can stand only once.

Take `CCOP(=S)(NC(C)C)Oc1ccccc1C(=O)OC(C)C` (centres unmarked) [Isofenphos, isofenphos]: in assay [1] (setting [3]), the “% Act.” value is recorded as 92%; the “Absorb. at 400 nm for 65 min.” value was 2.0 and 1.1; the “Absorb. at 400 nm for 100 min.” value is 2.0 and 1.5. Moreover, in assay [1] (setting [4]), the “% Inhib.” value is listed as 84%, the “Absorb. at 400 nm for 20 min.” value is reported as “.33” and the “Absorb. at 400 nm for 60 min.” value is listed as “.75”. In addition, the “inhibition of carboxylase (in words)” value in assay [1] was “inhibited”. Also, in assay [2] (setting [5]), the “Absorb. at 405 nm for 50 min.” value is listed as “.41”, the “Absorb. at 405 nm for 110 min.” value was “.43” and the “Absorb. at 405 nm for 165 min.” value is recorded as “.51”. The Activity in assay [2] (240 μg of isofenphos in 4.0 mL, Test #2, 200 μL saliva, 37° C. (no inhibitor: 1.14)) is 1.02 nmol/min. The “inhibition of acetylcholinesterase (in words)” value in assay [2] was “inhibited”.
On to `CCOP(=O)(OCC)Oc1ccc([N+](=O)[O-])cc1` [Paraoxon, paraoxon], for which, in assay [1] (setting [6]), the “% Act.” value was determined as 40%, the “Absorb. at 400 nm for 20 min.” value is “.23” and the “Absorb. at 400 nm for 100 min.” value is “.76”. Also, in assay [1] (setting [7]), the “% Inhib.” value is on record as 99%, the “Absorb. at 400 nm for 20 min.” value is “.03” and the “Absorb. at 400 nm for 60 min.” value is “.14”. In addition, the “inhibition of carboxylase (in words)” value in assay [1] is reported as “inhibited”. In addition, in assay [2], the “inhibition of acetylcholinesterase (in words)” value is “inhibited”.
